The results in this text go back to ChEMBL document CHEMBL3507680, “University of Dundee, Gates Library screen for HepG2 cell viability”.

Structures are written as SMILES.

This data set in a line: Human HepG2 cell viability assay in 384 well format. The data set is classed as toxicity, cell-based. Also noted: dose 125 nL, time 70.5 hour; cytotoxicity at 70.5 h: concentration not given beside the values. The following applies: HepG2 cells, read-out: Inhibition.
As for `Cc1cnn(CC(C)NCc2cc(=O)n3cc(C)ccc3n2)c1` (stereo not drawn), the cytotoxicity at 70.5 h was -6.57%. Turning to `CC(=O)NCCNC(=O)c1cc(C)ccc1SC1CCCC1`, the cytotoxicity at 70.5 h was -11.6%. To `CC(NC(=O)CN1CCCC1=O)c1ccc(Cl)s1` (stereo not drawn) belongs -9.58%; to `COCCN1C(=O)CC[C@@H]2[C@H]1CCN2C(=O)N(C)C`, -8.72%. With `CCCc1nc(NCCOC)c2c(n1)c(C)nn2CC`, the cytotoxicity at 70.5 h was -7.81%. Take `CCN(CC)C(=O)c1ccn(COc2cccc(Cl)c2Cl)n1`: the cytotoxicity at 70.5 h was -2.31%. On to `Cc1ccc2c(cnn2CCC(=O)NCc2csc(C3CC3)n2)c1`, for which the cytotoxicity at 70.5 h came to 22.8%. As for `COC1CCN(C(=O)Cc2csc(-c3ccc(F)cc3)n2)CC1`, the cytotoxicity at 70.5 h stood at 0.103%.

Regarding `CCNC(c1cccnc1)c1ccc(F)cc1F` (stereo not drawn), the cytotoxicity at 70.5 h was 2.45%. In the case of `CN1CCN(Cc2ccc(-c3ccc4[nH]ccc4c3)nc2)CC1`, the cytotoxicity at 70.5 h was -15.3%. Regarding `CSCc1nc(CCNC(=O)C(N)c2c(C)n[nH]c2C)cs1` (stereo not drawn), the cytotoxicity at 70.5 h was -3.99%. To `Cc1cc(CN(C)C(=O)C(c2ccccc2C)N(C)C)on1` (stereo not drawn) belongs -6.35%; to `c1ccc(CN2CCC(CNc3ncnc4c3CCNCC4)CC2)cc1`, 0.757%; to `O=C(c1ccn[nH]1)N1CCCC(n2cncn2)C1` (stereo not drawn), 5.61%. Take `O=C1NCCCCC1NC(=O)N1CCc2ccccc21` (stereo not drawn): the cytotoxicity at 70.5 h is -14.4%. Consider `CS(=O)(=O)N1CCC(c2nccn2Cc2ccccn2)CC1`, for which the cytotoxicity at 70.5 h is -5.19%.

Turning to `CCC(CNC1CCN(C(=O)N(C)C)CC1)Oc1ccccc1C` (stereo not drawn), the cytotoxicity at 70.5 h is 27.1%. Regarding `Cn1c(CO[C@H]2CN(S(C)(=O)=O)C[C@H]2F)nc2ccccc21`, the cytotoxicity at 70.5 h was -1.31%. `COCCN1CCN(CC(O)c2ccc(OC(F)(F)F)cc2)CC1` (stereo not drawn): the cytotoxicity at 70.5 h was -2.07%. For the compound `Cc1ccc(S(=O)(=O)NCc2cnn(C)c2)c(F)c1`, the cytotoxicity at 70.5 h is -3.12%.

For the compound `COc1ccc(CCC2CCCN(C(=O)c3cnc(N)nc3C)C2)cc1` (stereo not drawn), the cytotoxicity at 70.5 h was -18.9%. Consider `COc1ccc(-c2cc(CNc3ncnc4c3CCNCC4)no2)cc1`, for which the cytotoxicity at 70.5 h came out at 23.4%. Regarding `N#Cc1ccc(NCc2cccc(OCC3CCCO3)c2)nc1` (stereo not drawn), the cytotoxicity at 70.5 h was -8.7%. As to `COc1cc(C(=O)N2CCCC(CNS(C)(=O)=O)C2)ccc1C` (stereo not drawn), the cytotoxicity at 70.5 h stood at 15.8%. To `CC(C)OCCN(Cc1cccc(O)c1)C1CCC(O)CC1` (stereo not drawn) belongs -3.81%; to `CN(CCCOc1ccccc1Cl)C(=O)CN1C(=O)CCNC1=O`, -3.2%. For `Cc1c(-c2nc(-c3cccc(CN4CCOCC4)c3)no2)cnn1C`, the cytotoxicity at 70.5 h was -13.7%.

With `COc1ccc(CN2CCC=C(C(C)NC(C)=O)C2)cc1` (stereo not drawn), the cytotoxicity at 70.5 h is -10.1%.

Consider `O=S(=O)(N1CCCCCC1)N1CCN(Cc2ccc(F)cc2Br)CC1`, for which the cytotoxicity at 70.5 h is -4.85%.

On to `COc1ccc(C(C(=O)O)N2CCC(O)(c3cccnc3)CC2)cc1F` (stereo not drawn), for which the cytotoxicity at 70.5 h is 6.42%. `COc1ccc(-c2cn(CCSc3ncn[nH]3)nn2)cn1`: the cytotoxicity at 70.5 h was -9.67%. For `CCOCC1CN(C(=O)c2ccncn2)Cc2cnn(C)c21` (stereo not drawn), the cytotoxicity at 70.5 h was -3.18%. For `Cc1nc(CN2C[C@@H]3CN(C(=O)c4cnccn4)C[C@@H]3C2=O)cs1`, the cytotoxicity at 70.5 h is -10.8%. Turning to `Cn1cnnc1C1CCCN(C(=O)c2cc(Cl)c(Cl)n2C)C1` (stereo not drawn), the cytotoxicity at 70.5 h is -8.15%.

In the case of `CCC(=O)N1CCN(c2ncnc3c(C)nn(C)c23)CC1`, the cytotoxicity at 70.5 h came out at 15.4%. Regarding `O=C(NCCc1ccccc1)N1CCCCC1C1OCCO1` (stereo not drawn), the cytotoxicity at 70.5 h is -1.28%.

Take `Cc1ccoc1C(=O)N1CCCc2c(c(=O)n(C)n2C)C1`: the cytotoxicity at 70.5 h is 11.9%.

As to `Cc1noc(CNc2ccccc2C(=O)N2CCCC(O)C2)n1` (stereo not drawn), the cytotoxicity at 70.5 h was found to be 5.5%.

As for `Cc1nnc(N2CCO[C@H]3[C@@H](OCc4ccccn4)CC[C@@H]32)s1`, the cytotoxicity at 70.5 h is -2.28%. To `Cc1noc2ncc(S(=O)(=O)N3CCCC(C)(C)CC3)cc12` belongs -2.62%. Consider `Cn1cc(CN2CCCC(CCc3ccccc3C(F)(F)F)C2)cn1` (stereo not drawn), for which the cytotoxicity at 70.5 h is -1.24%. Take `O=C(NC1CC(=O)N(Cc2cccc(F)c2)C1)c1ccncc1` (stereo not drawn): the cytotoxicity at 70.5 h is -8.7%. On to `Cc1cnc(CN(C)Cc2cccc(OC(F)(F)F)c2)cn1`, for which the cytotoxicity at 70.5 h was -3.82%. Consider `CN1CCCC2(CCN(c3cc(C(F)(F)F)nc(N(C)C)n3)C2)C1=O` (stereo not drawn), for which the cytotoxicity at 70.5 h was determined as 10.3%.

Take `COC(=O)CNC(=O)CCCn1cnc2ccccc2c1=O`: the cytotoxicity at 70.5 h is -1.4%.

Regarding `CN1CCC(NC(=O)Nc2ccc(Br)c(F)c2)C1=O` (stereo not drawn), the cytotoxicity at 70.5 h was 1.65%. Take `COCCN1CCc2c(CNC(=O)c3nccn3C)cncc2C1`: the cytotoxicity at 70.5 h is 3.83%.

As for `CCN(CC)S(=O)(=O)N1CCC(c2c(C(N)=O)sc3ccccc23)C1` (stereo not drawn), the cytotoxicity at 70.5 h was -3.04%. In the case of `Cc1cc(C(=O)N2CCc3nnc(N)cc3C2)c(C)n1-c1ccccc1`, the cytotoxicity at 70.5 h was -1.62%. On to `COc1cc(Cl)cc(CN2CCCC(N3CCCC3)C2)c1OC` (stereo not drawn), for which the cytotoxicity at 70.5 h was -14.7%. Consider `CCN1CCn2c(C)cnc2C12CCN(C(=O)COC)CC2`, for which the cytotoxicity at 70.5 h is 25%. As for `CN(C)C(=O)[C@@]12CCO[C@@H]1CCN(Cc1ccc3c(c1)OCO3)C2`, the cytotoxicity at 70.5 h worked out at 1.17%.

As for `CS(=O)(=O)N1CCO[C@@H]2CN(C(=O)Cc3cccs3)CC[C@@H]2C1`, the cytotoxicity at 70.5 h was -9.17%. For the compound `O=C(Cn1ccc2ccc(Cl)cc21)/N=c1\[nH]nc(C2CCCO2)s1` (stereo not drawn), the cytotoxicity at 70.5 h was -2.63%. To `Cc1cc(CN(C)C(=O)c2ccc(Cl)c(S(C)(=O)=O)c2)no1` belongs 13.8%; to `C=C1C(C)(C)[C@H]2CC[C@]1(C(=O)N1CCC(Cn3cc(CO)nn3)CC1)C2`, 26.1%; to `CCCN1CCc2[nH]nc(C(=O)N3CCNC(=O)C3)c2C1`, -2.77%.

Take `Cc1ccsc1C(=O)NCc1ccnc(N2CCN(C)CC2)c1`: the cytotoxicity at 70.5 h is -8.63%.

On to `O=C(CCCNCc1ccccc1)N1CCCn2cncc2C1`, for which the cytotoxicity at 70.5 h is -4.58%.

On to `CCc1nccn1C1CCCN(C(=O)c2ccc(OC)c(OC)c2)C1` (stereo not drawn), for which the cytotoxicity at 70.5 h stood at 9.92%.

In the case of `Cc1csc(C2(NCc3nc(-c4ccco4)no3)CCCC2)n1`, the cytotoxicity at 70.5 h is -12.8%. Next, `O=C(O)CCn1ccc2cc(Br)ccc21`: 9.71%. Next, `CN(C)S(=O)(=O)N1CCN(c2cc(-n3cccc3)ncn2)CC1`: -6%; `CC(C)CN1CCC(C(=O)NCCNC(=O)c2ccccc2)CC1`: -4.76%. Next, `Cc1nn(C)c(C)c1CNCc1ccc(N2CCOCC2)nc1`: 3.85%; `CCN1C(=O)CC[C@]12CC[C@@H](NC(=O)c1cnccn1)CC2`: 12.9%. In the case of `COCc1nccc(C2CCCN(Cc3cccc(C#N)c3)C2)n1` (stereo not drawn), the cytotoxicity at 70.5 h is -9.48%. Next, `CSCC(CCO)NC(=O)c1cccc(F)c1Cl` (stereo not drawn): 24.5%; `CS(=O)(=O)N1C[C@H]2CCCN(Cc3cccs3)[C@H]2C1`: 6.54%. `FC(F)(F)COCCN1CCc2cncnc2C1`: the cytotoxicity at 70.5 h was -2.38%.

Take `CCCc1cc(NC(=O)c2ccc(Cl)c(N3CCNC3=O)c2)n[nH]1`: the cytotoxicity at 70.5 h was 11.9%. Consider `COCC1CN(S(=O)(=O)N(C)C)Cc2cnn(CC3CCCC3)c21` (stereo not drawn), for which the cytotoxicity at 70.5 h is -5.7%. With `CCOc1ccc2nc(CN3CCOC(CN)C3)ccc2c1` (stereo not drawn), the cytotoxicity at 70.5 h was -3.44%.

Take `O=C(c1cccc(F)c1)N1CCN2C[C@H](OCc3cccnc3)C[C@H]2C1`: the cytotoxicity at 70.5 h was -19%.

Take `CCCN(CC(=O)OC)C(=O)c1sc(C)nc1C`: the cytotoxicity at 70.5 h is -15.4%.

Take `c1csc(CN2CCc3ncnc(C4CCOC4)c3CC2)c1` (stereo not drawn): the cytotoxicity at 70.5 h was -8.76%. In the case of `O=C(c1cccc(N2CCCC2=O)c1)N1CCCC(n2cccn2)C1` (stereo not drawn), the cytotoxicity at 70.5 h was -6.59%.

In the case of `Cc1nc(CCNC(=O)NCC(c2ccco2)N(C)C)cs1` (stereo not drawn), the cytotoxicity at 70.5 h is -14.9%. To `CC(C)n1nc(CN(C)C)c2c1CN(CC1CC1)CC2` belongs 2.39%; to `O=C(NCC1CCCO1)c1nc2c(s1)CCCN2Cc1ccccc1` (stereo not drawn), -4.02%; to `Cc1nn(C)c(C)c1C1CCCN1Cc1cccc(C(=O)N(C)C)c1` (stereo not drawn), 37.6%.

For the compound `CC(C)c1cc(C(=O)N2C[C@H]3CC[C@@H]2CN(Cc2cccnc2)C3)no1`, the cytotoxicity at 70.5 h is -12.5%. For `CC(=O)N1CCC2(CC1)[C@@H]1CN(C(=O)N(C)C)C[C@@H]1C(=O)N2C`, the cytotoxicity at 70.5 h is -7.5%. For the compound `Cc1cc(CN(C2CC2)C(C)C(C)C)no1` (stereo not drawn), the cytotoxicity at 70.5 h was -2.85%.

As for `CS(=O)(=O)N1CCOCC2(CN(Cc3ccco3)CCO2)C1` (stereo not drawn), the cytotoxicity at 70.5 h was -3.82%. Next, `COc1ccccc1CC(=O)N1CCC(NCc2cccnc2)CC1`: 24%. As to `CC(C)(N)C(=O)N1CCC(c2nccnc2Oc2cccc(F)c2)CC1`, the cytotoxicity at 70.5 h is -10.4%. With `Cc1cccc(C(=O)N2C[C@@H](OCc3ccncc3)[C@@H]3OCCC[C@@H]32)n1`, the cytotoxicity at 70.5 h was -12.5%. On to `CC(Cn1cccn1)NCc1csc(-c2ncccn2)n1` (stereo not drawn), for which the cytotoxicity at 70.5 h came out at 3.56%. With `COCC[C@]1(O)CCN(C(=O)c2cnn(C)c2)C[C@H]1C`, the cytotoxicity at 70.5 h is -0.906%. In the case of `CN(C)C(=O)CN1C[C@@H]2CC[C@H](C1)N(Cc1ccc3nsnc3c1)C2`, the cytotoxicity at 70.5 h came to 3.82%.

As to `OCCc1cn(CC2CCCN(Cc3nccs3)C2)nn1` (stereo not drawn), the cytotoxicity at 70.5 h worked out at 11.8%. On to `CCn1ncc2c1C(COC)CN(Cc1ccco1)C2` (stereo not drawn), for which the cytotoxicity at 70.5 h came out at 3.48%. As for `CCNC(=O)CS(=O)(=O)NC1CCC(C)CC1` (stereo not drawn), the cytotoxicity at 70.5 h was -14.8%.

Turning to `CC[C@H]1CN2CC[C@H]1C[C@@H]2CNCc1ccc(OC(F)(F)F)cc1`, the cytotoxicity at 70.5 h was -7.22%. In the case of `CC(C)CCN1CCC2(CC1)CN(C(=O)c1cnccn1)CCO2`, the cytotoxicity at 70.5 h was 1.9%. For the compound `CC(C)c1cc(C(=O)N2CCN(c3cccc(C(=O)O)c3)CC2)n(C)n1`, the cytotoxicity at 70.5 h is -13.2%. As for `CC(C)COCCC(=O)Nc1c(-c2ccc(F)cc2)ncn1C`, the cytotoxicity at 70.5 h was -2.98%.
